{
  "source": "patent US4079139A",
  "about": "“Flavone derivatives” (priority 1974, dated 1978)",
  "key": {"mouse [1]": {"system": "mouse", "experiment": "Convulsivant effect on mouse", "conditions": "for stimulant action on the CNS indicated by the ratio LD50/CD50: mouse, in vivo"}, "[2]": {"experiment": "Convulsivant effect on mouse", "conditions": "mouse, in vivo, po"}, "[3]": {"system": "toxicity of sodium Pentobarbital", "experiment": "\"Life-saving\" effect: influence on the toxicity of sodium Pentobarbital", "conditions": "for PR (ratio between the LD50 of Pentobarbital with and without pre-treatment with the stimulant): mouse, in vivo"}, "Mouse [4]": {"system": "Mouse", "experiment": "Acute toxicity in mouse", "conditions": "in words"}, "Acute toxicity in mouse": {"experiment": "Acute toxicity in mouse", "conditions": "mouse, in vivo"}, "[5]": {"experiment": "Stimulating activity on the CNS (analeptic activity, ED50)", "type": "in vivo"}, "[6]": {"system": "respiratory depression induced by morphine", "conditions": "rabbit"}, "[7]": {"system": "respiratory and cardiocirculatory activity", "conditions": "rabbit; for convulsive phenomena: in vivo, iv"}, "rat": {"system": "rat", "experiment": "Chronic toxicity in rat"}, "Acute toxicity in rat": {"experiment": "Acute toxicity in rat", "set-up": "species or system rats Sprague-Dauley", "conditions": "in vivo, read-out: LD50 and F.L.", "description": "The test has been performed on Swiss mice of the weight of 20-22 g and on rats Sprague-Dauley of the weight of 120-130 g, subdivided in groups comprising 5 male and 5 female animals. The new drugs have been administered to animals hungry since 15-18 hours, both by oral and i.p.route. The LD50 values have been determined according to Litchfield and Wilcoxon (J.Pharmacol.96,99,1949). The results are reported in the following Table 1, in comparison with LD50 value for Dimefline."}, "mouse [8]": {"system": "mouse", "conditions": "in vivo"}, "Mouse [9]": {"system": "Mouse", "conditions": "cited from earlier work"}, "[10]": {"conditions": "rat, 5 and 10 mg/kg, 5 times/week over 12 weeks"}},
  "note": "Like-named read-outs stand apart in the source and are kept apart here.",
  "data": [
    {"smiles": "COc1ccc2c(=O)c(-c3ccccc3)c(-c3ccc(C)cc3)oc2c1CN(C)C", "note": "[PV1]", "values": [
      {"measurement": "stimulant action on the CNS indicated by the ratio LD50/CD50", "setting": "mouse [1]", "result": "equivalent for the two drugs"},
      {"measurement": "TD50", "setting": "[2]", "result": 58, "unit": "mg/kg"},
      {"measurement": "reduction of the toxicity of Pentobarbital", "setting": "[3]; equi-toxic doses, vs Dimefline, in words", "result": "reduces the toxicity of Pentobarbital much more than Dimefline"},
      {"measurement": "PR (ratio between the LD50 of Pentobarbital with and without pre-treatment with the stimulant)", "setting": "[3]", "result": "1,39"},
      {"measurement": "acute toxicity compared with Dimefline", "setting": "Mouse [4]", "result": "by far less toxic than Dimefline"},
      {"measurement": "LD50", "setting": "Acute toxicity in mouse", "result": 80, "unit": "mg/kg"},
      {"measurement": "LD50", "setting": "Acute toxicity in mouse; ip", "result": 28.2, "unit": "mg/kg"},
      {"measurement": "LD50", "setting": "Acute toxicity in mouse; po", "result": 80, "unit": "mg/kg"},
      {"measurement": "ED50", "setting": "[5]", "result": 5, "unit": "mg/kg"},
      {"measurement": "antagonism of the intermittent breath of Sheyne-Stoches", "setting": "[6]; i.v. 1.25 mg/kg, after morphine 10 mg/kg", "result": "uneffective"},
      {"measurement": "reinstatement of normal respiratory amplitude and frequency", "setting": "[6]; i.v. 2.5 mg/kg, after morphine 10 mg/kg, repeated administration needed", "result": "effective to reinstate normal values of respiratory amplitude and frequency, but needed repeated administration"},
      {"measurement": "reinstatement of normal respiratory amplitude and frequency", "setting": "[6]; i.v. 5 mg/kg, after morphine 10 mg/kg, only one administration", "result": "quite effective"},
      {"measurement": "cardiocirculatory conditions", "setting": "[6]; in vivo, iv", "result": "not remarkably affected"},
      {"measurement": "respiratory amplitude and frequency", "setting": "[7]; i.v. 1.25 - 2.5-5 mg/kg, without morphine", "result": "constantly reduced the gradual diminution of the respiratory amplitude and frequency"},
      {"measurement": "convulsive phenomena", "setting": "[7]", "result": "no convulsive phenomenon was detected"},
      {"measurement": "HB", "setting": "rat; 5 mg/Kg, 12 weeks", "result": "14,88 ± 0,36%"},
      {"measurement": "Hemazies", "setting": "rat; 5 mg/Kg, 12 weeks", "result": "7,38 ± 0,21 10^6 /mm^3"},
      {"measurement": "Leucocytes", "setting": "rat; 5 mg/Kg, 12 weeks", "result": "17,04 ± 1,36 10^3 /mm^3"},
      {"measurement": "Leucocytic formula: bas", "setting": "rat; 5 mg/Kg, 12 weeks", "result": 0},
      {"measurement": "Leucocytic formula: eosin", "setting": "rat; 5 mg/Kg, 12 weeks", "result": "0,9"},
      {"measurement": "Leucocytic formula: linf.", "setting": "rat; 5 mg/Kg, 12 weeks", "result": "77,6"},
      {"measurement": "Leucocytic formula: monoc.", "setting": "rat; 5 mg/Kg, 12 weeks", "result": "7,9"},
      {"measurement": "Leucocytic formula: neutr.", "setting": "rat; 5 mg/Kg, 12 weeks", "result": "13,6"},
      {"measurement": "analysis of urine: Hemoglobin", "setting": "rat; 5 mg/kg", "result": "1(+)"},
      {"measurement": "analysis of urine: Proteins", "setting": "rat; 5 mg/kg", "result": "6(+)"},
      {"measurement": "analysis of urine: Residue", "setting": "rat; 5 mg/kg", "result": "normal"},
      {"measurement": "relative average weight: Brain", "setting": "rat; 5 mg/kg", "result": "579,6 ± 24,5 mg/100 g of body weight"},
      {"measurement": "relative average weight: Heart", "setting": "rat; 5 mg/kg", "result": "289,9 ± 11,2 mg/100 g of body weight"},
      {"measurement": "relative average weight: Liver", "setting": "rat; 5 mg/kg", "result": "3012 mg/100 g of body weight"},
      {"measurement": "relative average weight: Loins", "setting": "rat; 5 mg/kg", "result": "658,5 ± 26,4 mg/100 g of body weight"},
      {"measurement": "relative average weight: Spleen", "setting": "rat; 5 mg/kg", "result": "304,2 ± 16,6 mg/100 g of body weight"},
      {"measurement": "Azotemia", "setting": "rat; 5 mg/kg, 12 weeks", "result": "15,7 ± 0,5 mg/100 ml"},
      {"measurement": "Glycemia", "setting": "rat; 5 mg/kg, 12 weeks", "result": "87,8 ± 3,9 mg/100 ml"},
      {"measurement": "SGOT", "setting": "rat; 5 mg/kg, 12 weeks", "result": "12,9 ± 0,8 mU/ml"},
      {"measurement": "SGPT", "setting": "rat; 5 mg/kg, 12 weeks", "result": "12,1 ± 0,6 mU/ml"},
      {"measurement": "HB", "setting": "rat; 10 mg/Kg, 12 weeks", "result": "15,02 ± 0,42%"},
      {"measurement": "Hemazies", "setting": "rat; 10 mg/Kg, 12 weeks", "result": "7,40 ± 0,20 10^6 /mm^3"},
      {"measurement": "Leucocytes", "setting": "rat; 10 mg/Kg, 12 weeks", "result": "16,70 ± 1,70 10^3 /mm^3"},
      {"measurement": "Leucocytic formula: bas", "setting": "rat; 10 mg/Kg, 12 weeks", "result": 0},
      {"measurement": "Leucocytic formula: eosin", "setting": "rat; 10 mg/Kg, 12 weeks", "result": "0,7"},
      {"measurement": "Leucocytic formula: linf.", "setting": "rat; 10 mg/Kg, 12 weeks", "result": "77,8"},
      {"measurement": "Leucocytic formula: monoc.", "setting": "rat; 10 mg/Kg, 12 weeks", "result": "9,4"},
      {"measurement": "Leucocytic formula: neutr.", "setting": "rat; 10 mg/Kg, 12 weeks", "result": "12,1"},
      {"measurement": "analysis of urine: Hemoglobin", "setting": "rat; 10 mg/kg", "result": "2(+)"},
      {"measurement": "analysis of urine: Residue", "setting": "rat; 10 mg/kg", "result": "normal"},
      {"measurement": "relative average weight: Brain", "setting": "rat; 10 mg/kg", "result": "583,7 ± 19,8 mg/100 g of body weight"},
      {"measurement": "relative average weight: Heart", "setting": "rat; 10 mg/kg", "result": "288,8 ± 11,3 mg/100 g of body weight"},
      {"measurement": "relative average weight: Liver", "setting": "rat; 10 mg/kg", "result": "3036,5 mg/100 g of body weight"},
      {"measurement": "relative average weight: Loins", "setting": "rat; 10 mg/kg", "result": "672,8 ± 29,6 mg/100 g of body weight"},
      {"measurement": "relative average weight: Spleen", "setting": "rat; 10 mg/kg", "result": "303,7 ± 13,5 mg/100 g of body weight"},
      {"measurement": "Azotemia", "setting": "rat; 10 mg/kg, 12 weeks", "result": "32,5 ± 1,6 mg/100 ml"},
      {"measurement": "Glycemia", "setting": "rat; 10 mg/kg, 12 weeks", "result": "80,3 ± 4,1 mg/100 ml"},
      {"measurement": "SGOT", "setting": "rat; 10 mg/kg, 12 weeks", "result": "12,3 ± 0,5 mU/ml"},
      {"measurement": "SGPT", "setting": "rat; 10 mg/kg, 12 weeks", "result": "10,4 ± 0,7 mU/ml"},
      {"measurement": "deaths", "setting": "rat; [10]", "result": "No death has been registered"},
      {"measurement": "increase in the weight of the treated animals", "setting": "rat; [10]", "result": "identical to that of the controls"},
      {"measurement": "intolerance of the drug", "setting": "rat; [10]", "result": "No intolerance of the drug has been noted"},
      {"measurement": "autopsy", "setting": "rat; rat, 5 and 10 mg/kg, 12 weeks", "result": "no lesion of the different organs"},
      {"measurement": "hematologic and hematochemical tests", "setting": "rat; rat, 5 and 10 mg/kg, 12 weeks, vs controls, in words", "result": "do not show significant difference between controls and treated animals"},
      {"measurement": "LD50", "setting": "Acute toxicity in rat; ip", "result": 22.5, "unit": "mg/kg"},
      {"measurement": "LD50", "setting": "Acute toxicity in rat; po, os", "result": 76.4, "unit": "mg/kg"},
      {"measurement": "R(LD50 /CD50)", "setting": "mouse [8]", "result": "1,38"}
    ]},
    {"smiles": "COc1ccc2c(=O)c(C)c(-c3ccccc3)oc2c1CN(C)C", "note": "[Dimefline]", "values": [
      {"measurement": "start of the convulsivant effect", "setting": "mouse [1]; in comparison with PV1, in words", "result": "starts at by far lower doses"},
      {"measurement": "stimulant action on the CNS indicated by the ratio LD50/CD50", "setting": "mouse [1]", "result": "equivalent for the two drugs"},
      {"measurement": "TD50", "setting": "[2]", "result": 8.9, "unit": "mg/kg"},
      {"measurement": "PR (ratio between the LD50 of Pentobarbital with and without pre-treatment with the stimulant)", "setting": "[3]", "result": "1,27"},
      {"measurement": "LD50 and F.L.", "setting": "Mouse [9]; i.p., Setnikar, J.Pharmacol.128, 176, 1960", "result": "4.8 (4.6-5.0) mg/KG"},
      {"measurement": "LD50 and F.L.", "setting": "Mouse [9]; in vivo, po", "result": "11.9 (10.3-13.8) mg/KG"},
      {"measurement": "LD50 and L.F.", "setting": "Mouse [9]; in vivo", "result": "11,9 (10,3-13,8) mg/Kg"},
      {"measurement": "convulsive phenomena", "setting": "[7]", "result": "several cases showing convulsive phenomena"}
    ]}
  ]
}
